What was measured:
[1] = target: T1, human recombinant caspase 3 (Homo sapiens, UniProt P42574); experiment: Protease counter-screening: Caspase 3; format: biochemical
T1 construct: host or cells: E. coli
Method: (§1) Appendix 7. Protease Counter -Screening
(§2) Protease counter-screeni ng was performed using the methods described below. Initial screening was conducted in duplicate using a single test substance concentration of 10 µ M .
(§3) Additional assays were conducted in replicate for selected pairin gs of test s ubstance and enz yme in order to enable the determination of IC50 values using conventional procedures.
(§4) Determination of K i was made using the Batch K i program (Biokin Ltd, Pullman, WA) to derive values from the Morrison equation: […]
(§5) Where [E ] is the active enz yme concentration, Kiapp is the apparent inhibition const ant, v 0 is the control velocit y in the absence of inhibitors, vb is the background velocity, v is the initial reaction velocit y in the presence of inhibitor, and I is the inhibitor concentration.Thence:
(§6) Where [S ] is the substrate concentration and KM is the Michealis constant. […]
by addition of 50 µM Ac-DEVD-AMC for another 60 min incubation period. The amount of AMC formed was determined fluorimetricall y (excitation 360 nm/emission 465 nm). […]
by addition of 25 µM Ac-LEH D-A FC for another 60 min incubation period. The amount of amino-4- trifluorometh ylcoumarin (AFC) formed determined fluorimetrically (400nm/ 510nm).
Cathepsin C: Cathepsin C from bovine spleen was used as the source of enz yme. […] T he amount of AMC product formed was read spectrofluorimetrically

[2] = test system: nonsensitized rats challenged with a natural mixture of HDM allergens; conditions: i.t. aerosol typically 60-360 min prior to allergen challenge, unsensitised BN rats
[3] = target: T2, Human liver cathepsin L (Homo sapiens, UniProt P07711); experiment: Protease counter-screening: Cathepsin L; format: biochemical
T2 construct: Human liver cathepsin L was used as the; from tissue; host or cells: human liver

[4] = target: T3, Human recombinant dipeptidyl peptidase IV (Homo sapiens, UniProt P27487); experiment: Protease counter-screening: Dipeptidyl Dipeptidase IV; format: biochemical
T3 construct: host or cells: insect Sf9 cells
Method: as §1, §2, §3, §4, §5, §6
(§7) Test compound or vehicle was pre- incubated with 600 […]
(§8) The reaction was […]
(§9) initiated by addition of 1 µM N-CH3-SO2-D-FGR-pNA for another 120 min incubation period. […]
Factor Xa: Test compound or vehicle was pre -incubated for 15 min at 25 °C in modified 50 mM Tris-HCl buffer pH 7.6 containing 0.4 nM Factor Xa from human plasma. The reaction was initiated by addition of 0.3 mM N-a-Z-D-RGR-pNA for another 60 min incubation period. The amount of pNA form ed was measur ed at 405 nm. […]

[5] = Measurement of LogD7.4 (n-octanol/PBS shake); format: physicochemical; conditions: single determination, n-octanol/PBS pH 7.4; read-out: Log D7.4
Method: Appendix 4. Measurement of LogD7.4
Test compounds (~1 mg) were weighed into 2 mL HPLC vials. n- Octanol (0.7 mL), pre-saturated with 10 mM phosphate buffered saline pH7.4 (PBS), was added to each vial followed b y PBS (0. 7 mL), which had been pre-saturat ed with n-octanol. The mixtures were shaken for 90 min and then centrifuged for 10 min at 4,000 rpm. The upper organic l ayer (0.2 m L) and the aqueous la yer (0.5 mL) were removed from each vial and anal yz e d b y LC -MS. Mass spect ral anal ysis was used to confirm peak identity whilst the concentration of compound was assessed by a diode arra y det ecto r. The logD for each compound was calculated b y takin g th e lo g of its concentration ratio between the oct anol and aqueous la ye r s.Given the robustness of the assa y and the fact that the info rmation was us ed onl y for gen eral guid ance, thes e measu rements were based on singlicate det erminations.

[6] = target: T4, Human recombinant MMP-3 (Homo sapiens, UniProt P08254); experiment: Protease counter-screening: MMP-3; format: biochemical
T4 construct: host or cells: E. coli
Method: as §1, §2, §3, §4, §5, §6, §7, §8, §9
Matrix metalloprotease-3 (MMP-3 ): Human recombinant MMP-3 proenz yme expressed in E. coli was activated with 4-aminophen yl mercuric acetate (APMA) for 60 min at 37 °C. […] The amount of MCA-PLG formed was read spectrofluorimetricall y at 340 nm/400 nm.

T1 sequence (P42574 29-175 limits assumed): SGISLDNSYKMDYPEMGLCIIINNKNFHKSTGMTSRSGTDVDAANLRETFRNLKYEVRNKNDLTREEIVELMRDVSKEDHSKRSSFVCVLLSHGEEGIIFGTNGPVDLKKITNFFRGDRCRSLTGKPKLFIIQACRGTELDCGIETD
T1 sequence (P42574 176-277 limits assumed): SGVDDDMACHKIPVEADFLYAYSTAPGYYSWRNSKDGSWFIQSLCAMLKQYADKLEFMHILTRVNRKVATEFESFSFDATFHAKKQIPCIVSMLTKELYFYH
T4 sequence (P08254 100-477): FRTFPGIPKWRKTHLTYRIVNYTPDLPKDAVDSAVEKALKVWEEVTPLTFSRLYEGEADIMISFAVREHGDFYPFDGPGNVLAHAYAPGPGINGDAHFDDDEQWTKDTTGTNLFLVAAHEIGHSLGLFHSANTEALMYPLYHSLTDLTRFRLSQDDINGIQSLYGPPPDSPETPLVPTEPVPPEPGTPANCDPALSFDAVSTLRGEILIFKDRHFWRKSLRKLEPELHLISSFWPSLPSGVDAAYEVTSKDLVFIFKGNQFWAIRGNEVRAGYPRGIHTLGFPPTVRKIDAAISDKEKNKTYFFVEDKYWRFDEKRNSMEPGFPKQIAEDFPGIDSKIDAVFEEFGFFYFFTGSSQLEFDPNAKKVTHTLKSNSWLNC
T3 sequence (P27487 whole entry): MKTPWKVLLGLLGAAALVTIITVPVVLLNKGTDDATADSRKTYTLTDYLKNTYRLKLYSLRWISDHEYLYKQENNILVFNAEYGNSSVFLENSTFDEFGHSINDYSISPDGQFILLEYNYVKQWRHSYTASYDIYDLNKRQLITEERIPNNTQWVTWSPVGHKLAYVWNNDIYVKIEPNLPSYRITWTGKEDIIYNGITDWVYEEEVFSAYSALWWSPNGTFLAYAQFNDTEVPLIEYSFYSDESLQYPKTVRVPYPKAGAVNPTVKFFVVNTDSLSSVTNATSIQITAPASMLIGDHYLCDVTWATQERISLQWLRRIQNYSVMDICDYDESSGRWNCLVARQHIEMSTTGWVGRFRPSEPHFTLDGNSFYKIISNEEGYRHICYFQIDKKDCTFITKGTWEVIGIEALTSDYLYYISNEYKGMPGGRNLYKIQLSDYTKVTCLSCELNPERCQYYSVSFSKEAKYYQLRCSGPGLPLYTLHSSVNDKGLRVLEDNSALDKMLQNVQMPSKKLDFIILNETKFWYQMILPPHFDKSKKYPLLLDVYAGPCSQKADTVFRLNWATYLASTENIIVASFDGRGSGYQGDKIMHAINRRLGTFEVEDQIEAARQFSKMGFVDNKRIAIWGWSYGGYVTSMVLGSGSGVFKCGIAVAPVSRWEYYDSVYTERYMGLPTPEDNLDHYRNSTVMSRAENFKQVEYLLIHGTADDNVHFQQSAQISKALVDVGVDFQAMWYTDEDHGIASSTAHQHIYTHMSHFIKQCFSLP
T2 sequence (P07711 114-333): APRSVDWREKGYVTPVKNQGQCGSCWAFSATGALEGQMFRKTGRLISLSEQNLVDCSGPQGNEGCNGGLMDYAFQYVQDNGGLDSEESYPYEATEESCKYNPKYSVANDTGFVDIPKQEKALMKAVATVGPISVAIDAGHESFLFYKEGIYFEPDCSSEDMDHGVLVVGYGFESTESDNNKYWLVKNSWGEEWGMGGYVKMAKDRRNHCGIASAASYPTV

## CC(C)[C@H](NC(=O)[C@H](C)NC(=O)[C@@H](NC(=O)c1ccccc1)C(C)(C)C)C(=O)C(=O)NCc1ccccc1 [Compound 38, N-{(S)-1-[(S)-1-((S)-1-Benzylaminooxalyl-2-methyl-propylcarbamoyl)-ethylcarbamoyl]-2,2-dimethyl-propyl}-benzamide]
[1]
  inhibition at 10 µM: 1%
[2]
  duration of protection: trend of inhibition of eosinophil recruitment with increasing pre-treatment interval: rise to well-maintained
[3]
  inhibition at 10 µM: 34%
[4]
  inhibition at 10 µM: 0%
[5]
  logD at 1.5 h: 3.2
[6]
  inhibition at 10 µM: 0%
